US20160297830A1, “NOVEL COMPOUNDS USEFUL FOR THE TREATMENT OF BACTERIAL INFECTIOUS DISEASES” (GALAPAGOS NV, priority 2013, published 2016)
Converted amounts (≈) assume the structure as drawn.

tested on: H. influenza Hi4 efflux pump KO; experiment: Antibacterial activity assay (MIC), H. influenza Hi4; type: cell-based

| SMILES | MIC [µg/mL] |
| --- | --- |
| COC[C@@H]1[C@@H](O)[C@@H]2[C@H]3C=C[C@@H]4[C@@H](COC)C(=O)O[C@H]([C@H](O)COC)[C@H](C)/C=C(\C)[C@@]24O[C@H]3[C@@H]1OC(=O)c1ccon1 [Compound 13, 8-O-Isoxazole-3′-carbonylbranimycin] | 16 (≈ 27.7 µM) |
| COC[C@@H]1[C@@H](O)[C@@H]2[C@H]3C=C[C@@H]4[C@@H](COC)C(=O)O[C@H]([C@H](O)COC)[C@H](C)/C=C(\C)[C@@]24O[C@H]3[C@@H]1OC(=O)c1cnco1 [Compound 14, 8-O-Oxazole-5′ carbonylbranimycin] | 64 (≈ 111 µM) |
| COC[C@H]1[C@@H](O)[C@@H]2O[C@@]34/C(C)=C/[C@@H](C)[C@@H]([C@H](O)COC)OC(=O)[C@H](COC)[C@H]3CC[C@@H]2[C@H]4[C@@H]1O [Compound 15, 4,5-Dihydro-branimycin] | 64 (≈ 132 µM) |
| COC[C@@H]1[C@@H](O)[C@@H]2[C@H]3CC[C@@H]4[C@@H](COC)C(=O)O[C@H]([C@H](O)COC)[C@H](C)/C=C(\C)[C@@]24O[C@H]3[C@@H]1OC(=O)c1ccc[nH]1 [Compound 16, 4,5-Dihydro-8-O-1H-pyrrole-2′-carbonylbranimycin] | 16 (≈ 27.7 µM) |
| COCC[C@H]1OC(=O)[C@H](COC)[C@H]2C=C[C@H]3[C@H]4O[C@]2(/C(C)=C/[C@H]1C)[C@@H]3[C@H](O)[C@@H](COC)[C@H]4O [Compound 17, 17-Deoxybranimycin] | 8 (≈ 17.1 µM) |
| COC[C@@H]1[C@@H](O)[C@@H]2[C@H]3C=C[C@@H]4[C@@H](COC)C(=O)O[C@H]([C@@H](COC)OC)[C@H](C)/C=C(\C)[C@@]24O[C@H]3[C@@H]1OC(=O)c1ccc[nH]1 [Compound 18, 17-O-Methyl-8-O-1H-pyrrole-2′-carbonylbranimycin] | 4 (≈ 6.78 µM) |
| COC[C@@H]1[C@@H](O)[C@@H]2[C@H]3C=C[C@@H]4[C@@H](COC)C(=O)O[C@H]([C@H](O)COC)[C@H](C)/C=C(\C)[C@@]24O[C@H]3[C@@H]1OC(=O)c1cc(F)c[nH]1 [Compound 19, 8-O-4-Fluoro-1H-pyrrole-2′-carbonylbranimycin] | 0.25 (≈ 0.421 µM) |
| COCC(=O)[C@H]1OC(=O)[C@H](COC)[C@H]2C=C[C@H]3[C@H]4O[C@]2(/C(C)=C/[C@H]1C)[C@@H]3[C@H](O)[C@@H](COC)[C@H]4OC(=O)c1ccc[nH]1 [Compound 20, 18-Deoxy-18-oxo-8-O-1H-pyrrole-2′-carbonylbranimycin] | 32 (≈ 55.8 µM) |
| COC[C@@H]1[C@@H](O)[C@@H]2[C@H]3C=C[C@@H]4[C@@H](COC)C(=O)OC[C@H](C)/C=C(\C)[C@@]24O[C@H]3[C@@H]1OC(=O)c1ccc[nH]1 [Compound 22, 17,18-Dinor-8-O-1H-pyrrole-2′-carbonybranimycin] | 32 (≈ 63.8 µM) |
| COC[C@@H](O)[C@H]1OC(=O)[C@H](COC)[C@H]2C=C[C@H]3[C@H]4O[C@]2(/C(C)=C/[C@H]1C)[C@@H]3[C@H](O)[C@@H](C)[C@H]4OC(=O)c1cc(F)c[nH]1 [Compound 23, 8-O-4-Fluoro-1H-pyrrole-2′-carbonylbaleomycin] | 0.5 (≈ 0.887 µM) |
| COC[C@@H]1[C@@H](O)[C@@H]2[C@H]3C=C[C@@H]4[C@@H](COC)C(=O)O[C@H](C(C)(O)COC)[C@H](C)/C=C(\C)[C@@]24O[C@H]3[C@@H]1OC(=O)c1ccc[nH]1 (some centres unmarked) [Compound 24, 17-Methyl-8-O-1H-pyrrole-2′-carbonylbranimycin] | 8 (≈ 13.6 µM) |
| COCC(=NO)[C@H]1OC(=O)[C@H](COC)[C@H]2C=C[C@H]3[C@H]4O[C@]2(/C(C)=C/[C@H]1C)[C@@H]3[C@H](O)[C@@H](COC)[C@H]4OC(=O)c1ccc[nH]1 [Compound 25, 18-Deoxy-18-oximino-8-O-1H-pyrrole-2′-carbonylbranimycin] | 1 (≈ 1.7 µM) |
| COC[C@@H]1[C@@H](O)[C@@H]2[C@H]3C=C[C@@H]4[C@@H](COC)C(=O)O[C@H]([C@H](O)COC)[C@H](C)/C=C(\C)[C@@]24O[C@H]3[C@@H]1OC(=O)c1cc(C#N)c[nH]1 [Compound 26, 8-O-4-Cyano-1H-pyrrole-2′-carbonylbranimycin] | 8 (≈ 13.3 µM) |
| COC/C(=N\OC)[C@H]1OC(=O)[C@H](COC)[C@H]2C=C[C@H]3[C@H]4O[C@]2(/C(C)=C/[C@H]1C)[C@@H]3[C@H](O)[C@@H](COC)[C@H]4OC(=O)c1ccc[nH]1 [Compound 27, 18-Deoxy-18-methoximino-8-O-1H-pyrrole-2′-carbonylbranimycin] | 8 (≈ 13.3 µM) |
| COC[C@@H]1[C@@H](O)[C@@H]2[C@H]3C=C[C@@H]4[C@@H](COC)C(=O)O[C@H]([C@H](O)COC)[C@H](C)/C=C(\C)[C@@]24O[C@H]3[C@@H]1OC(=O)c1cc(Cl)c[nH]1 [Compound 28, 8-O-4-Chloro-1H-pyrrole-2′-carbonylbranimycin] | 4 (≈ 6.56 µM) |
| COCC(=NOC(C)=O)[C@H]1OC(=O)[C@H](COC)[C@H]2C=C[C@H]3[C@H]4O[C@]2(/C(C)=C/[C@H]1C)[C@@H]3[C@H](O)[C@@H](COC)[C@H]4OC(=O)c1ccc[nH]1 [Compound 29, 18-Acetylimino-18-deoxy-8-O-1H-pyrrole-2′-carbonylbranimycin] | 2 (≈ 3.17 µM) |
| COC[C@@H](O)[C@H]1OC(=O)[C@H](COC)[C@H]2C=C[C@H]3[C@H]4O[C@]2(/C(C)=C/[C@H]1C)[C@@H]3[C@H](O)[C@@H](C)[C@H]4OC(=O)c1cc(Cl)c[nH]1 [Compound 30, 8-O-4-Chloro-1H-pyrrole-2′-carbonylbaleomycin] | 4 (≈ 6.9 µM) |
| COC[C@@H]1[C@@H](O)[C@@H]2[C@H]3C=C[C@@H]4[C@@H](COC)C(=O)O[C@H]([C@H](O)COC)[C@H](C)/C=C(\C)[C@@]24O[C@H]3[C@@H]1OC(=O)c1cc(Br)c[nH]1 [Compound 32, 8-O-4-Bromo-1H-pyrrole-2′-carbonylbranimycin] | 4 (≈ 6.11 µM) |
| COC[C@@H]1[C@@H](O)[C@@H]2[C@H]3C=C[C@@H]4[C@@H](COC)C(=O)O[C@H]([C@H](O)COC)[C@H](C)/C=C(\C)[C@@]24O[C@H]3[C@@H]1OC(=O)c1cc(Br)c(Br)[nH]1 [Compound 34, 8-O-4,5-Dibromo-1H-pyrrole-2′-carbonylbranimycin] | 8 (≈ 10.9 µM) |
| COC[C@@H]1[C@@H](O)[C@@H]2[C@H]3C=C[C@@H]4[C@@H](COC)C(=O)O[C@H]([C@H](O)COC)[C@H](C)/C=C(\C)[C@@]24O[C@H]3[C@@H]1OC(=O)c1cc(Br)c(Br)o1 [Compound 36, 8-O-4,5-Dibromofurane-2′-carbonylbranimycin] | 32 (≈ 43.6 µM) |
| COC[C@@H]1[C@@H](O)[C@@H]2[C@H]3C=C[C@@H]4[C@@H](COC)C(=O)O[C@H]([C@H](O)COC)[C@H](C)/C=C(\C)[C@@]24O[C@H]3[C@@H]1OC(=O)c1cc(Br)c(F)[nH]1 [Compound 37, 8-O-4-Bromo-5-Fluoro-1H-pyrrole-2′-carbonylbranimycin] | 16 (≈ 23.8 µM) |
| COC[C@@H]1[C@@H](O)[C@@H]2[C@H]3C=C[C@@H]4[C@@H](COC)C(=O)O[C@H]([C@H](O)COC)[C@H](C)/C=C(\C)[C@@]24O[C@H]3[C@@H]1OC(=O)c1cc(F)c(F)[nH]1 [Compound 38, 8-O-4,5-Difluoro-1H-pyrrole-2′-carbonylbranimycin] | 16 (≈ 26.2 µM) |
| COC[C@@H]1[C@@H](O)[C@@H]2[C@H]3C=C[C@@H]4[C@@H](COC)C(=O)O[C@H]([C@H](O)COC)[C@H](C)/C=C(\C)[C@@]24O[C@H]3[C@@H]1OC(=O)c1cc(C)n[nH]1 [Compound 39, 8-O-5-Methyl-1H-Pyrazole-3′-carbonylbranimycin] | > 64 |
| COCC(=NO)[C@H]1OC(=O)[C@H](COC)[C@H]2C=C[C@H]3[C@H]4O[C@]2(/C(C)=C/[C@H]1C)[C@@H]3[C@H](O)[C@@H](COC)[C@H]4OC(=O)c1cc(F)c[nH]1 [Compound 40, 18-Deoxy-18-oximino-8-O-4-Fluoro-1H-pyrrole-2′-carbonylbranimycin] | 2 (≈ 3.3 µM) |
| COCC(=NO)[C@H]1OC(=O)[C@H](COC)[C@H]2C=C[C@H]3[C@H]4O[C@]2(/C(C)=C/[C@H]1C)[C@@H]3[C@H](O)[C@@H](COC)[C@H]4OC(=O)c1cc(Cl)c[nH]1 [Compound 41, 18-Deoxy-18-oximino-8-O-4-Chloro-1H-pyrrole-2′-carbonylbranimycin] | 8 (≈ 12.8 µM) |
| COCC(=NOC(C)=O)[C@H]1OC(=O)[C@H](COC)[C@H]2C=C[C@H]3[C@H]4O[C@]2(/C(C)=C/[C@H]1C)[C@@H]3[C@H](O)[C@@H](COC)[C@H]4OC(=O)c1cc(Cl)c[nH]1 [Compound 42, 18-Acetylimino-18-deoxy-8-O-4-Chloro-1H-pyrrole-2′-carbonylbranimycin] | 4 (≈ 6.01 µM) |
| CO[C@H]1C[C@H]2C=C[C@H]3[C@H]4O[C@]2(/C(C)=C/[C@@H](C)[C@@H]([C@@H](C)O)OC1=O)[C@@H]3[C@H](O)[C@@H](C)[C@H]4OC(=O)c1ccc[nH]1 [Nargenicin A1, reference compound] | 0.5 (≈ 0.97 µM) |
| COC[C@@H]1[C@@H](O)[C@@H]2[C@H]3C=C[C@@H]4C[C@H](O)C(=O)O[C@H]([C@H](O)COC)[C@H](C)/C=C(\C)[C@@]24O[C@H]3[C@@H]1OC(=O)c1ccc[nH]1 [Nargenicin B1, reference compound] | 8 (≈ 14.2 µM) |
| CO[C@H]1C[C@H]2C=C[C@H]3[C@H]4O[C@]2(/C(C)=C/[C@@H](C)[C@@H]([C@@H](C)O)OC1=O)[C@@H]3[C@H](O)[C@@H](C)[C@H]4O [Nodusmicin, reference compound] | 2 (≈ 4.73 µM) |
